Measurements: US11306084B2, “Integrin antagonists” (Saint Louis University, priority 2016, dated 2022)
Structures can show the parent of a compound that is named as a salt.

Experiments:
[1] = biological target: T1, Recombinant human integrin ανβ1 (Homo sapiens, UniProt P05556+P06756); assay: Solid Phase Receptor Assay (SPRA) for ανβ1 function; format: binding; conditions: for IC50: plate-bound human fibronectin, read-out: αvβ1 SPRA IC50
T1 construct: purchased R&D Systems 6579-AV
Experimental: B. Solid Phase Receptor Assay (SPRA) for ανβ1 Function
Wells were washed 3 times with 150 μL TBS+ and then 150 μL of blocking buffer (TBS+ with 1% bovine serum albumin, Sigma A7906) was added. The plate was incubated for 1 hr at 37° C. and then washed 3× with TBS+ buffer. […] Compounds were diluted to 20 μM and 1 μL was added to each well of the plate according to a standard template with each sample repeated in triplicate. After incubation for two hours at room temperature, the plate was washed 3 with 150 μL of TBS+ buffer. To each well, 50 μL of biotinylated anti-αν antibody (R&D Systems, BAF1219) at 1 μg/mL in TBS+/0.1% BSA were added and the plate covered and incubated for 1 hr at room temperature. After washing the plate 3× with 150 μL of TBS+ buffer, 50 μL of streptavidin-conjugated horseradish peroxidase (R&D Systems, DY998) diluted in TBS+ blocking buffer were added to the wells and the plate incubated for 20 min at room temperature. The plate was washed 3× with TBS+ buffer followed by 50 μL of TMB substrate (Sigma, T4444) added to each well in the dark and the plate incubated for 25 min at room temperature. 25 μL of 1.0 M phosphoric acid was added as a stop solution and the plates were read at 450 nm using a Spectramax plate reader.

[2] = biological target: T2, Recombinant human integrin ανβ3 (Homo sapiens, UniProt P05106+P06756); assay: Solid Phase Receptor Assay (SPRA) for ανβ3 function; format: binding; conditions: for IC50: plate-bound human vitronectin, read-out: αvβ3 SPRA IC50
T2 construct: purchased R&D Systems 3050-AV
Experimental: C. Solid Phase Receptor Assay (SPRA) for ανβ3 Function
Wells were washed 3 times with 150 μL TBS+ and then 150 μL of blocking buffer (TBS+ with 1% bovine serum albumin, Sigma A7906) was added. The plate was incubated for 1 hr at 37° C. and then washed 3× with TBS+ buffer. […] Compounds were diluted to 20 μM and then 1 μL was added to each well of the plate according to a standard template with each sample repeated in triplicate. After incubation for two hours at room temperature, the plate was washed 3× with 150 μL of TBS+ buffer. To each well, 50 μL of biotinylated anti-αν antibody (R&D Systems, BAF1219) at 0.5 μg/mL in TBS+/0.1% BSA were added and the plate covered and incubated for 1 hr at room temperature. After washing the plate 3× with 150 μL of TBS+ buffer, 50 μL of streptavidin-conjugated horseradish peroxidase (R&D Systems, DY998) diluted in TBS+ blocking buffer were added to the wells and the plate incubated for 20 min at room temperature. The plate was washed 3× with TBS+ buffer followed by 50 μL of TMB substrate (Sigma, T4444) added to each well in the dark and the plate was incubated for 25 min at room temperature. 25 μL of 1.0 M phosphoric acid was added as a stop solution and the plates were read at 450 nm using a Spectramax plate reader.

T1 sequence (P06756 31-992 limits assumed): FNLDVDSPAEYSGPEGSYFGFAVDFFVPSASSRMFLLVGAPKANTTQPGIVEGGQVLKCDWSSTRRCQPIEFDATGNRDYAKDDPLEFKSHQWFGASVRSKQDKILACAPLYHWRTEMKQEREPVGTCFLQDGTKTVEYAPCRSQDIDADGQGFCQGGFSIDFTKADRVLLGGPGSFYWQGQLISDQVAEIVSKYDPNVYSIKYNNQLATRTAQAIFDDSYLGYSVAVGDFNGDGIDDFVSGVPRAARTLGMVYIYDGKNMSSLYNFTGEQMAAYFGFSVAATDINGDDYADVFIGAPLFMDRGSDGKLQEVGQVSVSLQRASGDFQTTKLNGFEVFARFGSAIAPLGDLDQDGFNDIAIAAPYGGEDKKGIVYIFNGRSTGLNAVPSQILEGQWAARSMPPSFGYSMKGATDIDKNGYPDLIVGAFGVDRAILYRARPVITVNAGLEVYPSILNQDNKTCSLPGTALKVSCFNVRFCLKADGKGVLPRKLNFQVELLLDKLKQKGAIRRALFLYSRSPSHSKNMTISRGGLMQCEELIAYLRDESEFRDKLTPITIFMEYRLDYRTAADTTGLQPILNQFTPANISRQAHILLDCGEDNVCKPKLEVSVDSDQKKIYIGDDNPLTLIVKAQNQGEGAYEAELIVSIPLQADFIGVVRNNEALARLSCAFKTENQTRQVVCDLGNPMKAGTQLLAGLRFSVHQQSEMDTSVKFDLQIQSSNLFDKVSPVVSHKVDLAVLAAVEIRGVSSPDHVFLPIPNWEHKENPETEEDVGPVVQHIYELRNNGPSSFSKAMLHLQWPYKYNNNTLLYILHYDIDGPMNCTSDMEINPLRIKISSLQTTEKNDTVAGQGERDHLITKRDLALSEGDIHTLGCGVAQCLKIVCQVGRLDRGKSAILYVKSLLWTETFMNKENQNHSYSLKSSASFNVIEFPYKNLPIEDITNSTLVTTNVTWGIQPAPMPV
T1 sequence (P05556 21-728 limits assumed): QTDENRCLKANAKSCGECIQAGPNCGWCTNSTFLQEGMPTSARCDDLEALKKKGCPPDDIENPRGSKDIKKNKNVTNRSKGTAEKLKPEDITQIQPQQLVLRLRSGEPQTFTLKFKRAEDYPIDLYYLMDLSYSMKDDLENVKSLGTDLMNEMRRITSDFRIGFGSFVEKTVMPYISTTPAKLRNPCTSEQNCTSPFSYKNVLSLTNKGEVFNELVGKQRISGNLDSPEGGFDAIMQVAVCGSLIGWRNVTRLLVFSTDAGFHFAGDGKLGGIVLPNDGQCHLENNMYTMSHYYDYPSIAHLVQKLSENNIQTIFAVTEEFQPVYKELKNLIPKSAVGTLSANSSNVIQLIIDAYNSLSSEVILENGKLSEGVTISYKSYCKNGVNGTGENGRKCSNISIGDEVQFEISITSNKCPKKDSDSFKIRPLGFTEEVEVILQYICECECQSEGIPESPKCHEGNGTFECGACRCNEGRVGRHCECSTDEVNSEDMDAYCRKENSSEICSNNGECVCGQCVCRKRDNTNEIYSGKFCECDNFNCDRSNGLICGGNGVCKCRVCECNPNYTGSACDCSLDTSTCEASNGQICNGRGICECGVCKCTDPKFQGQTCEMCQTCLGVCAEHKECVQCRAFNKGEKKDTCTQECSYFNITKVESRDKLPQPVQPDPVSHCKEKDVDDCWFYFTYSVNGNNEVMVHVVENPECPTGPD
T2 sequence (P06756 31-992 limits assumed): as the sequence (P06756 31-992 limits assumed) above
T2 sequence (P05106 27-718 limits assumed): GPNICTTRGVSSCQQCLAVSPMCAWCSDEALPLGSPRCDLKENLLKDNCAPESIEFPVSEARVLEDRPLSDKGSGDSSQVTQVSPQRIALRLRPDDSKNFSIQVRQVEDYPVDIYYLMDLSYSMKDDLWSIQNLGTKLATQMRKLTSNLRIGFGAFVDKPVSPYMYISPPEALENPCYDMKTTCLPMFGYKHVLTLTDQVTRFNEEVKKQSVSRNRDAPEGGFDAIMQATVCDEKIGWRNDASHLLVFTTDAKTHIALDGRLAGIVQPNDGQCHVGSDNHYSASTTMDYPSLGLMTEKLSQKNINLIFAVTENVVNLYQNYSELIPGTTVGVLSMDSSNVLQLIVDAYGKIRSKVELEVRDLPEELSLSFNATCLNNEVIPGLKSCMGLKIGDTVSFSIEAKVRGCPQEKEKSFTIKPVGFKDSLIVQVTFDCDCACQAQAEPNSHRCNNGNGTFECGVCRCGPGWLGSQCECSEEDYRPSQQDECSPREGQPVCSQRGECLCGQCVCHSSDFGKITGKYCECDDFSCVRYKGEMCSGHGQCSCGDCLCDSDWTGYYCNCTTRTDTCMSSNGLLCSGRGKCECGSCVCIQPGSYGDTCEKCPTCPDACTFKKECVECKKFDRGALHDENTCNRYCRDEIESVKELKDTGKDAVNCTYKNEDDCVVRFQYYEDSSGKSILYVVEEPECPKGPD

| SMILES | IC50 [1] | IC50 [2] | inhibitory activity at ανβ1 (in words) [1] | inhibitory activity at ανβ3 (in words) [2] |
| --- | --- | --- | --- | --- |
| Cn1nc(CC(CC(=O)O)c2cc(OC(F)(F)F)cc(C(C)(C)C)c2)cc1OCCc1ccc2c(n1)NCCC2 (stereo not shown) [Example 36, 3-[3-tert-butyl-5-(trifluoromethoxy)phenyl]-4-[1-methyl-5-[2-(5,6,7,8-tetrahydro-1,8-naphthyridin-2-yl)ethoxy]pyrazol-3-yl]butanoic Acid] | 6.5 nM | 10 nM | – | – |
| COc1ccc(C(C)(C)C)cc1C(CC(=O)O)Cc1cc(OCCc2ccc3c(n2)NCCC3)n(C)n1 (stereo not shown) [Example 32, 3-(5-(tert-butyl)-2-methoxyphenyl)-4-(1-methyl-5-(2-(5,6,7,8-tetrahydro-1,8-naphthyridin-2-yl)ethoxy)-1H-pyrazol-3-yl)butanoic Acid] | 0.9 nM | 380 nM | high inhibitory activity | low activity |
| Cc1ccc(C(C)(C)C)cc1C(CC(=O)O)Cc1cc(OCCc2ccc3c(n2)NCCC3)n(C)n1 (stereo not shown) [Example 44, 3-(5-tert-butyl-2-methyl-phenyl)-4-[1-methyl-5-[2-(5,6,7,8-tetrahydro-1,8-naphthyridin-2-yl)ethoxy]pyrazol-3-yl]butanoic Acid Trifluoroacetate] | 14 nM | 270 nM | – | – |
| COc1ccc(C(N)=O)cc1C(CC(=O)O)Cc1cc(OCCc2ccc3c(n2)NCCC3)n(C)n1 (stereo not shown) [Example 47, 3-(5-carbamoyl-2-methoxyphenyl)-4-(1-methyl-5-(2-(5,6,7,8-tetrahydro-1,8-naphthyridin-2-yl)ethoxy)-1H-pyrazol-3-yl)butanoic Acid trifluoroacetate] | 4.9 nM | 4.9 nM | – | – |
| Cn1nc(CC(CC(=O)O)c2ccc(F)c(Br)c2)cc1OCCc1ccc2c(n1)NCCC2 (stereo not shown) [Example 5, 3-(3-bromo-4-fluorophenyl)-4-(1-methyl-5-(2-(5,6,7,8-tetrahydro-1,8-naphthyridin-2-yl)ethoxy)-1H-pyrazol-3-yl)butanoic Acid] | 11 nM | 6 nM | – | – |
| COCC1(c2cc(Cl)cc(C(CC(=O)O)Cc3cc(OCCc4ccc5c(n4)NCCC5)n(C)n3)c2)CCOCC1 (stereo not shown) [Example 29, 3-(3-chloro-5-(4-(methoxymethyl)tetrahydro-2H-pyran-4-yl)phenyl)-4-(1-methyl-5-(2-(5,6,7,8-tetrahydro-1,8-naphthyridin-2-yl)ethoxy)-1H-pyrazol-3-yl)butanoic Acid] | 9.4 nM | 5.3 nM | – | – |
| Cn1nc(CC(CC(=O)O)c2ccc(F)c(C#N)c2)cc1OCCc1ccc2c(n1)NCCC2 (stereo not shown) [Example 7, 3-(3-cyano-4-fluorophenyl)-4-(1-methyl-5-(2-(5,6,7,8-tetrahydro-1,8-naphthyridin-2-yl)ethoxy)-1H-pyrazol-3-yl)butanoic Acid] | 7 nM | 7 nM | – | – |
| Cn1nc(CC(CC(=O)O)c2cc(Cl)cc(C(C)(C)C(F)(F)F)c2)cc1OCCc1ccc2c(n1)NCCC2 (stereo not shown) [Example 27, 3-(3-chloro-5-(1,1,1-trifluoro-2-methylpropan-2-yl)phenyl)-4-(1-methyl-5-(2-(5,6,7,8-tetrahydro-1,8-naphthyridin-2-yl)ethoxy)-1H-pyrazol-3-yl)butanoic Acid] | 4.4 nM | 5.6 nM | – | – |
| Cn1nc(CC(CC(=O)O)c2cc(Br)cc(C(F)(F)F)c2)cc1OCCc1ccc2c(n1)NCCC2 (stereo not shown) [Example 10, 3-(3-bromo-5-(trifluoromethyl)phenyl)-4-(1-methyl-5-(2-(5,6,7,8-tetrahydro-1,8-naphthyridin-2-yl)ethoxy)-1H-pyrazol-3-yl)butanoic Acid] | 17 nM | 3.6 nM | – | – |
| Cn1nc(CC(CC(=O)O)c2cc(C#N)cc(C3(C(F)F)CC3)c2)cc1OCCc1ccc2c(n1)NCCC2 (stereo not shown) [Example 20, 3-(3-cyano-5-(1-(difluoromethyl)cyclopropyl)phenyl)-4-(1-methyl-5-(2-(5,6,7,8-tetrahydro-1,8-naphthyridin-2-yl)ethoxy)-1H-pyrazol-3-yl)butanoic Acid] | 3.9 nM | 3.6 nM | – | – |
